Data: patent US6525001B1, “Substituted pyrimidine and pyridine herbicides” (Mid-American Commercialization Corporation, priority 1997, dated 2003)

Legend:
Type in all cases: in vivo
[1] = tested on: pigweed (Amaranthus retroflexus); assay: Test B pre-/postemergence; design: key: 0 is no effect; 10 is complete control
Procedure, shortened: (§1)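 Scored visually 0 (none) to 10 (complete control) against untreated plants after twelve to sixteen greenhouse days. Test chemicals, formulated in surfactant-containing non-phytotoxic solvent, applied to soil after planting and, separately, onto 1- to 4-leaf (2–18 cm) plants.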

[2] = tested on: crabgrass (Digitaria sanguinalis); assay: Test B pre-/postemergence; design: key: 0 is no effect; 10 is complete control
Procedure, shortened: as §1

corn (Zea mays) = assay: Test B pre-/postemergence; design: key: 0 is no effect; 10 is complete control
Procedure, shortened: as §1

[3] = tested on: velvetleaf (Abutilon theophrasti); assay: Test B pre-/postemergence; design: key: 0 is no effect; 10 is complete control
Procedure, shortened: as §1

[4] = tested on: purple nutsedge (Cyperus rotundus); assay: Test B pre-/postemergence; design: key: 0 is no effect; 10 is complete control; settings: for Plant response rating, Nutsedge: Postemergence
Procedure, shortened: as §1

[5] = tested on: sugar beet (Beta vulgaris); assay: Test B pre-/postemergence; design: key: 0 is no effect; 10 is complete control
Procedure, shortened: as §1

[6] = tested on: wheat (Triticum aestivum); assay: Test B pre-/postemergence; design: key: 0 is no effect; 10 is complete control
Procedure, shortened: as §1

[7] = tested on: cocklebur (Xanthium strumarium); assay: Test B pre-/postemergence; design: key: 0 is no effect; 10 is complete control
Procedure, shortened: as §1

soybean (Glycine max) = assay: Test B pre-/postemergence; design: key: 0 is no effect; 10 is complete control
Procedure, shortened: as §1

rape (Brassica napus) = assay: Test B pre-/postemergence; design: key: 0 is no effect; 10 is complete control
Procedure, shortened: as §1

[8] = tested on: blackgrass (Alopecurus myosuroides); assay: Test B pre-/postemergence; design: key: 0 is no effect; 10 is complete control
Procedure, shortened: as §1

[9] = tested on: duck salad (Heteranthera limosa); assay: Test B flood test
Procedure, shortened: (§2)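 Flood test on plants grown to the 2-leaf stage; treated plants kept in greenhouse twelve to sixteen days, then visually rated against controls on a 0 (no effect) to 10 (complete control) scale.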

rice (Oryza sativa) = assay: Test B flood test
Procedure, shortened: as §2

[10] = tested on: smallflower flatsedge (Cyperus difformis); assay: Test B flood test
Procedure, shortened: as §2

[11] = tested on: bamyardgrass (Echinochloa crus-galli); assay: Test B flood test
Procedure, shortened: as §2

[12] = Rate 62 g/ha, Postemergence (flood test)
[13] = Rate 125 g/ha, Postemergence, flood test
[14] = Rate 250 g/ha, Postemergence (flood test species)

## COc1cnc(-c2ccc(C(F)(F)F)cc2)nc1Cc1cccc(C(F)(F)F)c1 [Compound 23]
[1]; Rate 62 g/ha, Postemergence
  Plant response rating, Redroot pigweed: 9
[1]; Rate 62 g/ha, Preemergence
  Redroot pigweed plant response rating: 9
[1]; Rate 125 g/ha, Postemergence
  Plant response rating, Redroot pigweed: 10
[1]; Rate 125 g/ha, Preemergence
  Redroot pigweed plant response rating: 9
[1]; Rate 250 g/ha, Postemergence
  Plant response rating, Redroot pigweed: 10
[1]; Rate 250 g/ha, Preemergence
  Plant response rating, Redroot pigweed: 10
[2]; Rate 62 g/ha, Postemergence
  Plant response rating, Crabgrass: 7
[2]; Rate 62 g/ha, Preemergence
  Crabgrass plant response rating: 9
[2]; Rate 125 g/ha, Postemergence
  Plant response rating, Crabgrass: 9
[2]; Rate 125 g/ha, Preemergence
  Crabgrass plant response rating: 10
[2]; Rate 250 g/ha, Postemergence
  Plant response rating, Crabgrass: 9
[2]; Rate 250 g/ha, Preemergence
  Plant response rating, Crabgrass: 10
Corn (Zea mays); Rate 62 g/ha, Postemergence
  Plant response rating, Corn: 2
Corn (Zea mays); Rate 62 g/ha, Preemergence
  Corn plant response rating: 0
Corn (Zea mays); Rate 125 g/ha, Postemergence
  Plant response rating, Corn: 3
Corn (Zea mays); Rate 125 g/ha, Preemergence
  Corn plant response rating: 1
Corn (Zea mays); Rate 250 g/ha, Postemergence
  Plant response rating, Corn: 3
Corn (Zea mays); Rate 250 g/ha, Preemergence
  Plant response rating, Corn: 1
[3]; Rate 62 g/ha, Postemergence
  Plant response rating, Velvetleaf: 9
[3]; Rate 62 g/ha, Preemergence
  Velvetleaf plant response rating: 1
[3]; Rate 125 g/ha, Postemergence
  Plant response rating, Velvetleaf: 9
[3]; Rate 125 g/ha, Preemergence
  Velvetleaf plant response rating: 3
[3]; Rate 250 g/ha, Postemergence
  Plant response rating, Velvetleaf: 9
[3]; Rate 250 g/ha, Preemergence
  Plant response rating, Velvetleaf: 10
[4]; Rate 62 g/ha
  Plant response rating, Nutsedge: 0
[4]; Rate 125 g/ha
  Plant response rating, Nutsedge: 0
[4]; Rate 125 g/ha, Preemergence
  Nutsedge plant response rating: 0
[5]; Rate 62 g/ha, Postemergence
  Plant response rating, Sugarbeets: 10
[5]; Rate 62 g/ha, Preemergence
  Sugarbeets plant response rating: 8
[5]; Rate 125 g/ha, Postemergence
  Plant response rating, Sugarbeets: 10
[5]; Rate 125 g/ha, Preemergence
  Sugarbeets plant response rating: 8
[5]; Rate 250 g/ha, Postemergence
  Plant response rating, Sugarbeets: 10
[5]; Rate 250 g/ha, Preemergence
  Plant response rating, Sugarbeets: 10
[6]; Rate 62 g/ha, Postemergence
  Plant response rating, Wheat: 3
[6]; Rate 62 g/ha, Preemergence
  Wheat plant response rating: 2
[6]; Rate 125 g/ha, Postemergence
  Plant response rating, Wheat: 4
[6]; Rate 125 g/ha, Preemergence
  Wheat plant response rating: 3
[6]; Rate 250 g/ha, Postemergence
  Plant response rating, Wheat: 5
[6]; Rate 250 g/ha, Preemergence
  Plant response rating, Wheat: 6
[7]; Rate 62 g/ha, Postemergence
  Plant response rating, Cocklebur: 9
[7]; Rate 62 g/ha, Preemergence
  Cocklebur plant response rating: 1
[7]; Rate 125 g/ha, Postemergence
  Plant response rating, Cocklebur: 10
[7]; Rate 125 g/ha, Preemergence
  Cocklebur plant response rating: 1
[7]; Rate 250 g/ha, Postemergence
  Plant response rating, Cocklebur: 10
[7]; Rate 250 g/ha, Preemergence
  Plant response rating, Cocklebur: 3
Soybean (Glycine max); Rate 62 g/ha, Postemergence
  Plant response rating, Soybean: 8
Soybean (Glycine max); Rate 62 g/ha, Preemergence
  Soybean plant response rating: 1
Soybean (Glycine max); Rate 125 g/ha, Postemergence
  Plant response rating, Soybean: 8
Soybean (Glycine max); Rate 125 g/ha, Preemergence
  Soybean plant response rating: 1
Soybean (Glycine max); Rate 250 g/ha, Postemergence
  Plant response rating, Soybean: 8
Soybean (Glycine max); Rate 250 g/ha, Preemergence
  Plant response rating, Soybean: 1
Rape (Brassica napus); Rate 62 g/ha, Postemergence
  Plant response rating, Rape: 10
Rape (Brassica napus); Rate 62 g/ha, Preemergence
  Rape plant response rating: 1
Rape (Brassica napus); Rate 125 g/ha, Postemergence
  Plant response rating, Rape: 10
Rape (Brassica napus); Rate 125 g/ha, Preemergence
  Rape plant response rating: 3
Rape (Brassica napus); Rate 250 g/ha, Postemergence
  Plant response rating, Rape: 10
Rape (Brassica napus); Rate 250 g/ha, Preemergence
  Plant response rating, Rape: 7
[8]; Rate 62 g/ha, Postemergence
  Plant response rating, Blackgrass: 6
[8]; Rate 62 g/ha, Preemergence
  Blackgrass plant response rating: 6
[8]; Rate 125 g/ha, Postemergence
  Plant response rating, Blackgrass: 7
[8]; Rate 125 g/ha, Preemergence
  Blackgrass plant response rating: 9
[8]; Rate 250 g/ha, Postemergence
  Plant response rating, Blackgrass: 9
[8]; Rate 250 g/ha, Preemergence
  Plant response rating, Blackgrass: 9
[9]; [12]
  Plant response rating, Ducksalad: 2
[9]; [13]
  Plant response rating, Ducksalad: 4
[9]; [14]
  Plant response rating, Ducksalad: 6
Rice (Oryza sativa); [12]
  Plant response rating, Rice: 3
Rice (Oryza sativa); [13]
  Plant response rating, Rice: 4
Rice (Oryza sativa); [14]
  Plant response rating, Rice: 5
[10]; [12]
  Plant response rating, S. Flatsedge: 4
[10]; [13]
  Plant response rating, S. Flatsedge: 8
[10]; [14]
  Plant response rating, S. Flatsedge: 9
[11]; [12]
  Plant response rating, Barnyardgrass: 4
[11]; [13]
  Plant response rating, Barnyardgrass: 5
[11]; [14]
  Plant response rating, Barnyardgrass: 6
